Data on one molecule can be found in US8314139B2, “Toluene sulfonic acid salt of a therapeutic compound and pharmaceutical compositions thereof” (Pfizer Inc., priority 2007, dated 2012).

The nature of series [1]: Aqueous solubility (RP-HPLC after temperature cycling). It counts as physicochemical. Conditions: for solubility at 25 h: thermodynamic from solid. As for the experimental part:
The following information was determined in regard of aqueous solubility. […] These values represent the solubility of the crystalline compound determined via RP-HPLC analysis after subjecting the drug media mixture to a temperature cycling program (40° C. for 8 hours, 15° C. for 5 hours, and 25° C. for 12 hours).

Series [2] is described as follows: Hygroscopicity by dynamic vapor sorption (DVS). It counts as physicochemical. The procedure: Hygroscopicity was assessed using a dynamic vapor sorption technique in which an accurately weighed sample is subjected to progressively changing water vapor pressure while simultaneously recording the weight change. The experiment is conducted isothermally at 25° C.
FIG. 3 provides a moisture sorption isotherm of the tosylate salt of trans-N-ethyl-3-fluoro-3-[3-fluoro-4-(pyrrolidin-1-ylmethyl)phenyl]cyclobutanecarboxamide, with absorption as the (♦) curve and desorption as the (▪) curve, plotting percent change in weight as a function of relative humidity, using the kinetic flow through method (8.1 mg sample, 25° C.).
During the initial drying cycle (25° C., 1% RH), less than 0.1% weight loss was observed, which is consistent with an anhydrous non-hygroscopic form. An approximate 0.06% increase in weight was detected by DVS analysis when a sample was exposed to relative humidities from 5% to 90% at 25° C. The desorption phase mimicked the sorption phase when the relative humidity was decreased to 5% (see FIG. 3). Additionally, the powder x-ray diffraction pattern for the sample after hygroscopicity testing matched the pattern of the sample prior to that testing.

Counter-ions that a name gives are not always drawn.

Broadly, the solubility is the dissolved amount per volume that the medium holds. For the molecule `CCNC(=O)[C@H]1C[C@@](F)(c2ccc(CN3CCCC3)c(F)c2)C1` [tosylate salt, (trans)-3-fluoro-3-[3-fluoro-4-(pyrrolidin-1-ylmethyl)phenyl]cyclobutanecarboxylic acid ethylamide tosylate salt], the solubility at 25 h in series [1] (25 °C, fassif, 0.1M phosphate buffered saline with 0.5 weight percent sodium tauracholate/phosphatidyl choline salts, final pH 6.5, temperature cycling) was above 11 mg/mL; in series [1] (25 °C, unbuffered water, final pH 3.8, temperature cycling), 23.6 mg/mL; in series [1] (aqueous buffer, 0.1M phosphate buffered saline, final pH 6.5, crystalline compound, temperature cycling 40/15/25° C.) it was above 10 mg/mL. The “aqueous solubility (in words)” value in series [1] (summary statement) is reported as “high aqueous solubility”. For the same molecule, in series [2] (25° C., 1% RH), the “weight loss during initial drying cycle” value is “less than 0.1%”. Moreover, the “increase in weight by DVS analysis” value in series [2] (relative humidities from 5% to 90% at 25° C.) was around 0.06%. The “hygroscopicity (in words)” value in series [2] (summary statement) is recorded as “only slightly hygroscopic”.
